Counter-ions that a name gives are not always drawn. Like-named read-outs stand apart in the source and are kept apart here.
Legend:
[1] = system: human epidermal keratinocytes; test: Colony formation assay using human epidermal keratinocytes; format: cell-based
Source text: To test whether COL17A1-mediated SCD maintains clonal proliferation of epidermal stem cell clones, the present inventors used a colony formation assay, which is an in vitro assay said to be the gold standard for assessing the self-renewal ability of epidermal stem cells, including cells in the tail epidermis.

[2] = system: COL17A1; test: COL17A1 expression in human epidermal keratinocytes by high content imaging (HCS); format: cell-based
Description: The present inventors further searched for substances that induce or maintain the expression of COL17A1. Human epidermal keratinocytes were seeded in 384-well plates, cultured for 48 hours after addition of reagents, immunostained with an anti-COL17A1 antibody and a fluorescently labeled secondary antibody, and then the fluorescence intensity per cell was detected using a high content imaging system (HCS: High Content Screening). In addition to cell counting with DAPI, the expression level of COL17A1 was quantified.

[3] = Table 1, human epidermal keratinocytes, 48 hours after addition of reagents, fluorescence intensity per cell
[4] = Table 3, anticancer drugs and molecularly targeted drugs

With `CC(=N)NCc1cccc(CN)c1` [1400 W] the “Colony area (control ratio)” value ([1]; Table 1) was “○”, the “Colony number (control ratio)” value ([1]; Table 1) was “○” and the “COL17A1 expression level (control ratio)” value [2, 3] was “○ (one circle (0) represents a 1.0-1.2-fold maintenance)”.
In the case of `COc1ccc2c(c1)c(CC(=O)OCC(=O)O)c(C)n2C(=O)c1ccc(Cl)cc1` [Acemetacin], the “COL17A1 expression level (control ratio)” value [2, 3] is reported as “⊚ (one double circle (⊚) represents a 1.2-fold or greater increase)”.
With `N=C(N)NN` [Aminoguanidine] the “Colony area (control ratio)” value ([1]; Table 1) was “○”, the “Colony number (control ratio)” value ([1]; Table 1) was “○” and the “COL17A1 expression level (control ratio)” value [2, 3] was “○ (one circle (0) represents a 1.0-1.2-fold maintenance)”.
In the case of `CCCCc1oc2ccccc2c1C(=O)c1cc(I)c(OCCN(CC)CC)c(I)c1` [Amiodarone Hydrochloride], the “Colony area (control ratio)” value ([1]; Table 1) is reported as “○”, the “Colony number (control ratio)” value ([1]; Table 1) is reported as “⊚ (one double circle (⊚) indicates maintenance of 1.0-1.2-fold)” and the “COL17A1 expression level (control ratio)” value [2, 3] is reported as “⊚⊚ (two double circles (⊚⊚) in the COL17A1 expression level (control ratio) represent a 2.0-fold or greater increase in the expression level)”.
For `O=c1cc(-c2ccc(O)cc2)oc2cc(O)cc(O)c12` [Apigenin], the “Colony area (control ratio)” value ([1]; Table 1) was “○”, the “Colony number (control ratio)” value ([1]; Table 1) was “○” and the “COL17A1 expression level (control ratio)” value [2, 3] was “⊚⊚ (two double circles (⊚⊚) in the COL17A1 expression level (control ratio) represent a 2.0-fold or greater increase in the expression level)”.
In the case of `C[C@H]1[C@@H](O)O[C@@H]2O[C@@]3(C)CC[C@H]4[C@H](C)CC[C@@H]1[C@@]24OO3` [Artenimol], the “COL17A1 expression level (control ratio)” value [2, 3] is reported as “⊚ (one double circle (⊚) represents a 1.2-fold or greater increase)”.
With `C[C@H]1C[C@H]2[C@@H]3CCC4=CC(=O)C=C[C@]4(C)[C@@]3(F)[C@@H](O)C[C@]2(C)[C@@]1(O)C(=O)CO` [Bethamethazone] the “COL17A1 expression level (control ratio)” value [2, 3] was “⊚⊚ (two double circles (⊚⊚) in the COL17A1 expression level (control ratio) represent a 2.0-fold or greater increase in the expression level)”.
With `COc1ccc(-c2coc3cc(O)cc(O)c3c2=O)cc1` [Biochanin A] the “Colony area (control ratio)” value ([1]; Table 1) was “○”, the “Colony number (control ratio)” value ([1]; Table 1) was “○” and the “COL17A1 expression level (control ratio)” value [2, 3] was “⊚ (one double circle (⊚) represents a 1.2-fold or greater increase)”.
In the case of `CCCCOc1ccc(CC(=O)NO)cc1` [Bufexamac], the “COL17A1 expression level (control ratio)” value [2, 3] is reported as “⊚ (one double circle (⊚) represents a 1.2-fold or greater increase)”.
For `O=NN(CCCl)C(=O)NCCCl` [Carmustine], the “COL17A1 expression level (control ratio)” value [2, 4] was 0.94.
In the case of `Cc1ccc(-c2cc(C(F)(F)F)nn2-c2ccc(S(N)(=O)=O)cc2)cc1` [Celecoxib], the “Colony area (control ratio)” value ([1]; Table 1) is reported as “⊚ (one double circle (⊚) indicates maintenance of 1.0-1.2-fold)”, the “Colony number (control ratio)” value ([1]; Table 1) is reported as “⊚ (one double circle (⊚) indicates maintenance of 1.0-1.2-fold)” and the “COL17A1 expression level (control ratio)” value [2, 3] is reported as “⊚ (one double circle (⊚) represents a 1.2-fold or greater increase)”.
In the case of `N.N.[Cl][Pt][Cl]` [Cisplatin], the “COL17A1 expression level (control ratio)” value [2, 4] is reported as 0.97.
For `Clc1ccccc1C(c1ccccc1)(c1ccccc1)n1ccnc1` [Clotrimazole], the “COL17A1 expression level (control ratio)” value [2, 3] was “⊚ (one double circle (⊚) represents a 1.2-fold or greater increase)”.
With `O=P1(N(CCCl)CCCl)NCCCO1` (stereo not drawn) [Cyclophosphamide hydrate] the “COL17A1 expression level (control ratio)” value [2] was 0.88.
In the case of `CN(C)/N=N/c1[nH]cnc1C(N)=O` [Dacarbazine], the “COL17A1 expression level (control ratio)” value [2, 4] is reported as 0.94.
With `COc1ccc(-c2cc(C(F)F)nn2-c2ccc(S(N)(=O)=O)cc2)cc1F` [Deracoxib] the “COL17A1 expression level (control ratio)” value [2, 3] was “⊚ (one double circle (⊚) represents a 1.2-fold or greater increase)”.
In the case of `c1ccc2c(c1)[I+]c1ccccc1-2` [Diphenyleneiodonium (DPI), Diphenyleneiodonium], the “Colony area (control ratio)” value ([1]; Table 1) is reported as “○”, the “Colony number (control ratio)” value ([1]; Table 1) is reported as “○” and the “COL17A1 expression level (control ratio)” value [2, 3] is reported as “⊚ (one double circle (⊚) represents a 1.2-fold or greater increase)”.
`CC(CCc1ccc(O)cc1)NCCc1ccc(O)c(O)c1` (stereo not drawn) [Dobutamine Hydrochloride] was tested, and the “Colony area (control ratio)” value ([1]; Table 1) was “⊚ (one double circle (⊚) indicates maintenance of 1.0-1.2-fold)”, the “Colony number (control ratio)” value ([1]; Table 1) was “⊚ (one double circle (⊚) indicates maintenance of 1.0-1.2-fold)” and the “COL17A1 expression level (control ratio)” value [2, 3] was “⊚⊚ (two double circles (⊚⊚) in the COL17A1 expression level (control ratio) represent a 2.0-fold or greater increase in the expression level)”.
For `O=c1c2ccccc2[se]n1-c1ccccc1` [Ebselen], the “Colony area (control ratio)” value ([1]; Table 1) was “⊚ (one double circle (⊚) indicates maintenance of 1.0-1.2-fold)”, the “Colony number (control ratio)” value ([1]; Table 1) was “⊚ (one double circle (⊚) indicates maintenance of 1.0-1.2-fold)” and the “COL17A1 expression level (control ratio)” value [2, 3] was “⊚ (one double circle (⊚) represents a 1.2-fold or greater increase)”.
`C#C[C@]1(O)CC[C@H]2[C@@H]3CCc4cc(O)ccc4[C@H]3CC[C@@]21C` [Ethynyl Estsadiol] was tested, and the “Colony area (control ratio)” value ([1]; Table 1) was “⊚ (one double circle (⊚) indicates maintenance of 1.0-1.2-fold)”, the “Colony number (control ratio)” value ([1]; Table 1) was “⊚ (one double circle (⊚) indicates maintenance of 1.0-1.2-fold)” and the “COL17A1 expression level (control ratio)” value [2, 3] was “⊚⊚ (two double circles (⊚⊚) in the COL17A1 expression level (control ratio) represent a 2.0-fold or greater increase in the expression level)”.
With `C=C1C[C@@H]2[C@H](CC[C@]3(C)C(=O)CC[C@@H]23)[C@@]2(C)C=CC(=O)C=C12` [Exemestane] the “COL17A1 expression level (control ratio)” value [2, 4] was 0.93.
`O=S(=O)(c1cccc2cnccc12)N1CCCNCC1` [Fasudil (HA-1077), Fasudil] was tested, and the “Colony area (control ratio)” value ([1]; Table 1) was “⊚ (one double circle (⊚) indicates maintenance of 1.0-1.2-fold)”, the “Colony number (control ratio)” value ([1]; Table 1) was “⊚ (one double circle (⊚) indicates maintenance of 1.0-1.2-fold)” and the “COL17A1 expression level (control ratio)” value [2, 3] was “⊚⊚ (two double circles (⊚⊚) in the COL17A1 expression level (control ratio) represent a 2.0-fold or greater increase in the expression level)”.
`Nc1nc(F)nc2c1ncn2[C@@H]1O[C@H](COP(=O)(O)O)[C@@H](O)[C@@H]1O` [Fludarabine phosphate] was tested, and the “COL17A1 expression level (control ratio)” value [2, 4] was 0.90.
In the case of `Fc1ccc(C(c2ccc(F)cc2)N2CCN(C/C=C/c3ccccc3)CC2)cc1` [Flunarizine Hydrochloride], the “Colony area (control ratio)” value ([1]; Table 1) is reported as “⊚ (one double circle (⊚) indicates maintenance of 1.0-1.2-fold)”, the “Colony number (control ratio)” value ([1]; Table 1) is reported as “⊚ (one double circle (⊚) indicates maintenance of 1.0-1.2-fold)” and the “COL17A1 expression level (control ratio)” value [2, 3] is reported as “⊚ (one double circle (⊚) represents a 1.2-fold or greater increase)”.
For `CC(=O)O.O=c1[nH]cc(F)c(=O)[nH]1` [Fluorouracil acetate], the “COL17A1 expression level (control ratio)” value [2, 4] was 0.88.
For `CN(C)c1cccc(-c2c3c(=O)n(-c4ccccc4Cl)[nH]c3cc(=O)n2C)c1` [GKT137831], the “Colony area (control ratio)” value ([1]; Table 1) was “○”, the “Colony number (control ratio)” value ([1]; Table 1) was “○” and the “COL17A1 expression level (control ratio)” value [2, 3] was “○ (one circle (0) represents a 1.0-1.2-fold maintenance)”.
With `Nc1ccn([C@@H]2O[C@H](CO)[C@@H](O)C2(F)F)c(=O)n1` [Gemcitabine] the “COL17A1 expression level (control ratio)” value [2, 4] was 0.96.
`NC(=O)NO` [Hydroxyurea] was tested, and the “COL17A1 expression level (control ratio)” value [2, 4] was 0.92.
With `O=P1(NCCCl)OCCCN1CCCl` (stereo not drawn) [Ifosfamide] the “COL17A1 expression level (control ratio)” value [2, 4] was 0.84.
For `CC(C)=CCC1=C(O)C(=O)c2ccccc2C1=O` [Lapachol], the “Colony area (control ratio)” value ([1]; Table 2) was “⊚ (one double circle (⊚) indicates maintenance of 1.0-1.2-fold)”, the “Colony number (control ratio)” value ([1]; Table 2) was “⊚ (one double circle (⊚) indicates maintenance of 1.0-1.2-fold)” and the “COL17A1 expression level (control ratio)” value ([2]; Table 2, human epidermal keratinocytes, 48 hours after addition of reagents) was “⊚⊚ (two double circles (⊚⊚) in the COL17A1 expression level (control ratio) represent a 2.0-fold or greater increase in the expression level)”.
In the case of `CC(=O)c1ccc2c(c1)Nc1ccccc1S2` [ML171], the “Colony area (control ratio)” value ([1]; Table 1) is reported as “⊚ (one double circle (⊚) indicates maintenance of 1.0-1.2-fold)”, the “Colony number (control ratio)” value ([1]; Table 1) is reported as “⊚ (one double circle (⊚) indicates maintenance of 1.0-1.2-fold)” and the “COL17A1 expression level (control ratio)” value [2, 3] is reported as “○ (one circle (0) represents a 1.0-1.2-fold maintenance)”.
In the case of `S=c1nc[nH]c2nc[nH]c12` [Mercaptopurine], the “COL17A1 expression level (control ratio)” value [2, 4] is reported as 0.83.
In the case of `Clc1ccc(C(c2ccccc2Cl)C(Cl)Cl)cc1` (stereo not drawn) [Mitotane], the “COL17A1 expression level (control ratio)” value [2, 4] is reported as 0.98.
For `CN1C(=O)C(Cc2c[nH]c3ccccc23)NC1=S` (stereo not drawn) [Necrostatin-1], the “Colony area (control ratio)” value ([1]; Table 1) was “⊚ (one double circle (⊚) indicates maintenance of 1.0-1.2-fold)”, the “Colony number (control ratio)” value ([1]; Table 1) was “⊚ (one double circle (⊚) indicates maintenance of 1.0-1.2-fold)” and the “COL17A1 expression level (control ratio)” value [2, 3] was “⊚ (one double circle (⊚) represents a 1.2-fold or greater increase)”.
For `O=C(O)c1cccnc1Nc1cccc(C(F)(F)F)c1` [Niflumic Acid], the “COL17A1 expression level (control ratio)” value [2, 3] was “⊚ (one double circle (⊚) represents a 1.2-fold or greater increase)”.
With `COc1cccc(-c2cc(=O)c3ccccc3o2)c1N` [PD98059] the “COL17A1 expression level (control ratio)” value [2, 4] was 0.84.
`COc1ccc(C[C@H](N)C(=O)N[C@H]2[C@@H](O)[C@H](n3cnc4c(N(C)C)ncnc43)O[C@@H]2CO)cc1` [Puromycin hydrochloride] was tested, and the “COL17A1 expression level (control ratio)” value [2, 4] was 0.85.
`CC/C(=C(\c1ccccc1)c1ccc(OCCN(C)C)cc1)c1ccccc1` [Tamoxifen citrate] was tested, and the “COL17A1 expression level (control ratio)” value [2, 4] was 0.78.
For `O=c1[nH]c(=O)n(C2CCCO2)cc1F` (stereo not drawn) [Tegafur], the “COL17A1 expression level (control ratio)” value [2, 4] was 0.90.
`Cn1nnc2c(C(N)=O)ncn2c1=O` [Temozolomide] was tested, and the “COL17A1 expression level (control ratio)” value [2, 4] was 0.98.
For `CN1C(C(=O)Nc2ccccn2)=C(O)c2sccc2S1(=O)=O` [Tenoxicam], the “COL17A1 expression level (control ratio)” value [2, 3] was “⊚ (one double circle (⊚) represents a 1.2-fold or greater increase)”.
`CCC(=O)O[C@H]1CC[C@H]2[C@@H]3CCC4=CC(=O)CC[C@]4(C)[C@H]3CC[C@]12C` [Testosterone propionate] was tested, and the “COL17A1 expression level (control ratio)” value [2, 4] was 0.84.
In the case of `Cc1c(Cl)cccc1Nc1ccccc1C(=O)O` [Tolfenamic Acid], the “COL17A1 expression level (control ratio)” value [2, 3] is reported as “⊚ (one double circle (⊚) represents a 1.2-fold or greater increase)”.
`C[C@]12C=CC(=O)C=C1CC[C@H]1[C@@H]3C[C@@H](O)[C@](O)(C(=O)CO)[C@@]3(C)C[C@H](O)[C@@]12F` [Triamcinolone] was tested, and the “COL17A1 expression level (control ratio)” value [2, 3] was “⊚ (one double circle (⊚) represents a 1.2-fold or greater increase)”.
Monensin Sodium was tested, and the “COL17A1 expression level (control ratio)” value [2, 3] was “⊚ (one double circle (⊚) represents a 1.2-fold or greater increase)”.
Toremiphene citrate was tested, and the “COL17A1 expression level (control ratio)” value [2, 4] was 0.94.

From patent publication US20260256870A1, “SKIN COMPOSITION” (Eaderm Co., Ltd., priority 2019, published 2026)
